We go through eight compounds from publication PMC3306180 (Journal of Medicinal Chemistry, 2012).

Where two headings read alike, the source gives them in different places. Some results are limits rather than exact numbers.

One data set has as its system human kinases. Format: biochemical.
The next data set has as its system T. gondii. The data set can be described thus: T. gondii cell proliferation. Format: cell-based, Toxoplasma gondii.
The next data set has as its system HL-60 (neutrophil) cells. The data set can be described thus: Human cell growth inhibition assay, HL-60. The following applies: concentrations up to 10 μM.
The subject of data set [1] is CRL-8155 (lymphocytic) cells. The data set can be described thus: Human cell growth inhibition assay, CRL-8155. The following applies: concentrations up to 10 μM.
Setting [2] is: generally observed, human kinase panel of Table 4.

For the compound `CCOc1ccc2cc(-c3nn(CC4CCN(C)CC4)c4ncnc(N)c34)ccc2c1.Cl` [Compound 15o], in the data set on human kinases (setting [2]), the “differences between IC50 values for TgCDPK1 over human kinases” value (“differences between IC50 values” for short) was more than 1000 fold.

`Cl.Nc1ncnc2c1cnn2CC1CCNCC1` [Compound 1n]: the “block of T. gondii cell invasion/proliferation” value in the data set with T. gondii is “do not block T. gondii cell invasion/proliferation”.

As for `COc1ccc2cc(-c3nn(CC4CCNCC4)c4ncnc(N)c34)ccc2c1.Cl` [Compound 14n], the “differences between IC50 values” value in the data set on human kinases (setting [2]) is more than 1000 fold. Moreover, the “inhibition of cell growth, HL-60” value in the data set on HL-60 (neutrophil) cells is “no inhibition of cell growth”. The “inhibition of cell growth, CRL-8155” value in data set [1] is listed as “no inhibition of cell growth”.

Consider `COc1ccc2cc(-c3nn(C(C)C)c4ncnc(N)c34)ccc2c1.Cl` [Compound 14a], for which the “inhibition of cell growth, HL-60” value with HL-60 (neutrophil) cells is “no inhibition of cell growth”. Further, in data set [1], the “inhibition of cell growth, CRL-8155” value is reported as “no inhibition of cell growth”.

For `CCOc1ccc2cc(-c3nn(C4CCN(C)CC4)c4ncnc(N)c34)ccc2c1.Cl` [Compound 15h], the “differences between IC50 values” value in the data set with human kinases (setting [2]) is more than 1000 fold. Also, in the data set on HL-60 (neutrophil) cells, the “inhibition of cell growth, HL-60” value was “no inhibition of cell growth”. The “inhibition of cell growth, CRL-8155” value in data set [1] was “no inhibition of cell growth”.

`CCOc1ccc2cc(-c3nn(CC4CCNCC4)c4ncnc(N)c34)ccc2n1.Cl` [Compound 16n]: the “differences between IC50 values” value with human kinases (setting [2]) is more than 1000 fold. In addition, in the data set on HL-60 (neutrophil) cells, the “inhibition of cell growth, HL-60” value was “no inhibition of cell growth”. Besides, in data set [1], the “inhibition of cell growth, CRL-8155” value was “no inhibition of cell growth”.

Take `CCOc1ccc2cc(-c3nn(CC4CCNCC4)c4ncnc(N)c34)ccc2c1.Cl` [Compound 15n]: in the data set on human kinases, the “differences between IC50 values” value is given as more than 1000 fold. Besides, in the data set with HL-60 (neutrophil) cells, the “inhibition of cell growth, HL-60” value is reported as “no inhibition of cell growth”. Moreover, the “inhibition of cell growth, CRL-8155” value in data set [1] was “no inhibition of cell growth”.

Consider `CC(C)(C)n1ncc2c(N)ncnc21.Cl` [Compound 1b], for which the “block of T. gondii cell invasion/proliferation” value in the data set on T. gondii was “do not block T. gondii cell invasion/proliferation”.
